Test system: Adhesions in the peritoneal cavity
Assay: Adhesions in the peritoneal cavity generated in rats by caecum injury and abdominal wall scarification
Format: in vivo, Wistar rats
Experimental: (§1) Adhesions in the peritoneal cavity were generated in laboratory animals (Wistar rats, 9 months of age, weight of 220-250 g) by injuring the surface of caecum and abdominal wall scarification in the injured area. The study was conducted in compliance with the principles of the European Convention for the Protection of Vertebrate Animals used for Experimental and other Scientific Purposes (Strasbourg, France, 1986), as well as with regulations for humane treatment specified in Guidance for Proper Conduct of Animal Experiments (Attachment to Order No. 755 of the Ministry of Health of the USSR, dated Aug. 12, 1977).
Ten laboratory animals were used in this study. They were divided into 2 groups: the experimental group and the control group.
The calculation was based on the minimum volume of solution required to moisten the peritoneal surface (diZerega G. S. Peritoneum, peritoneal healing and adhesion formation/G. S. diZerega//in: Perotoneal surgery: Ed. G. S. diZerega.—Berlin—Heidelberg—New York: Springer, 2006.—P. 3-38), and the concentration was calculated on the basis of IC50 in the boundary layer of cells. The control animals received a corresponding amount of normal saline solution.
On Day 28 after the abdominal cavity being injured, all animals were autopsied for the examination of abdominal cavity organs and the assessment of the severity and incidence of adhesions, deformation of abdominal cavity organs and distribution of different types of adhesions. The severity of adhesions was scored according to micro- and macroscopic adhesion scales [Micronized purified flavonoid fraction may prevent formation of intraperitoneal adhesions in rats//H. G. Yilmaz, I. H. Tacyildiz, C. Keles et al.//Fertil. Steril.—2005.—Vol. 84, Suppl. 2.—P 1083-1087].
The visceral peritoneum and abdominal organs involved in adhesion formation were examined histologically after fixation in FineFIX solution (Milestone), paraffin filling, staining with hematoxylin-eosin and van Gieson's staining.
as §1, with “surface of the caecum and” for “surface of caecum and”
Thirty laboratory animals were used in this study. They were divided into 2 groups: the experimental group and the control group. […]

Compound: C[S+]([O-])c1ccc(-c2nc(-c3ccc(F)cc3)c(-c3ccncc3)[nH]2)cc1 (stereo not shown) [SB203580, 4-(4-fluorophenyl)-2-(4-methylsulfinylphenyl)-5-(4-pyridyl)-1H-imidazole]
- signs of adhesions in histological section of intestinal wall (van Gieson's staining) (Example 5, FIG. 1, abdominal trauma zone and area of postoperative suture): No signs of adhesions
- cases of intestinal wall adhesions (Example 5: 3 ml sterile solution 10 μg/ml injected once before celiorrhaphy, autopsy Day 28): No cases of intestinal wall adhesions
- severity of adhesion formation (score, micro- and macroscopic adhesion scales) (Example 5: 3 ml, 10 μg/ml, once, Day 28, control scored 7, p<0.01): 2

Compound: Conjugates of Polyvinylimidazole and 4-(4-Fluorinephenyl)-2-(4-Methylsulphinylphenyl)-5-(4-Pyridyl)-1H-Imidazole [Example 3]
- signs of adhesions in histological section of intestinal wall (van Gieson's staining) (Example 6, FIG. 4, 30 days after modelling): No signs of adhesions

— patent US10493164B2, “Method for preventing and treating adhesions” (Joint Stock Company “Pharmasyntez”, priority 2011, dated 2019)
